Columns and labels:
FOXO1 = target: T1, FOXO1 (Homo sapiens, UniProt Q12778); assay: Cellular Thermal Shift Assay (CETSA) in K562 cells, FOXO1; type: binding; conditions: 1 μM
T1 construct: performed against the FOXO isoforms expressed in K562 cells; endogenous in cells; host or cells: K562
Method: K562 cells (ATCC) were maintained in appropriate volume of RPMI medium supplemented with 10% fetal bovine serum (Serum Plus—II, Sigma MO, USA), 100 units/mL penicillin and 100 […] (Corning, VA, USA). Short-term passages (<15) were used for all experiments. For CETSA, K562 cell were freshly seeded the day before the experiment. The day of experiment, equal numbers of cells were counted by Moxi Mini automated cell counter (Orflo) and 0.6×10^6 cells per data point were seeded in T-25 cell culture flasks (VWR, PA, USA) in appropriate volume of culture medium. Cells were exposed to […] AS1842856 or equal volume DMSO for 3 hours in an incubator with 5% CO2 and 37° C. […] The supernatants were transferred to new microcentrifuge tubes and analyzed by SDS-PAGE followed by immunoblotting analysis. […] Immunoblotting results were subjected to densitometric analysis (Image J) and melting temperatures of FOXO1, FOXO3 and FOXO4 were determined by Prism 7 (GraphPad) using nonlinear least-squares regression fit to Y=100/(1+10^(Log IC50−X)*H), where H=Hill slope (variable). The viability of the cells was assessed in triplicate by trypan blue exclusion. […]
Briefly, K562 cells were treated with increasing concentrations of the FOXO1 inhibitor AS1842856 just after HIVGKO infection. After 3-4 days, the percentage of latent cells and productive cells were quantified by FACS. […]

[1] = tested on: latent HIV-1 provirus in J-Lat cells; assay: HIV-GFP reactivation in J-Lat cell lines (RT-qPCR, FACS); type: cell-based
Method: Total RNA from samples was extracted using the Direct-zol RNA kit (R2060; Zymogen). cDNA was generated using 500 ng for CD4^+ T cells or 1000 ng of total RNA for J-Lats with Superscript III Reverse transcription (18080-044; ThermoFisher) and oligo(dT) (18418-012; ThermoFisher). Quantitative RT-PCR was carried out using Maxima SYBR Green qPCR Master Mix (Thermo Scientific) on SDS 2.4 software (Applied Biosystems) in a total volume of 12 μL. The SYBR green qPCR reactions contained 5 μl of 2× Maxima SYBR green/Rox qPCR Master Mix (K0221; ThermoFisher), 5 μl of diluted cDNA, and 1 nmol of both forward and reverse primers. The reactions were run using the following conditions: 50° C. for 2 min and 95° C. for 10 min, followed by 40 cycles of 95° C. for 5 s and 62° C. for 30 s. See Table 1 below for a qRT-PCR primer list. […] Dissociation curve analysis was performed after the end of the PCR to confirm the presence of a single and specific product. All qPCRs were independently repeated at least three times, averaged and compared using standard deviation (±SD).
The J-Lat clonal cell lines are Jurkat cells that contain a stably integrated, latent HIV-1 (HXB) Δenv provirus with a GFP reporter gene in place of the nef gene (Jordan, A. et al. EMBO J. 22, 1868-1877 (2003)). In this system, reactivation from established latency can be monitored through GFP expression.
HIV-GFP mRNA reactivation was assessed by RT-qPCR and normalized to RPL13A mRNA. Data represent average SD of three independent experiments. p-value relative to the control at each time point. FIG. 3, Panel B, depicts cell viability assessed by flow cytometry at 72 h of the same experiment as in A. Cell viability was measured by gating on both the live population at the forward scatter (FSC) and side scatter (SSC) plot and then the viable cells after staining with the viability dye. […] HIV-GFP reactivation (bars) and cell viability (dots) were analyzed by FACS. HIV-GFP reactivation is reported as a percentage of GFP-expressing cells (% GFP+ cells). Data represent average f SD of at least three independent experiments. FIG. 3, Panel D, depicts the same experiments as in FIG. 3, Panel C, but performed in different J-Lat cell lines 5A8, 6.3, 11.1 and 15.4. Data represent average f SD of at least three independent experiments. 10 ng/mL TNFα was used as control. […] Calculation of synergy for drug combinations using the Bliss independence model applied to the HIV-GFP reactivation measured as a percentage of GFP-expressing cells (% GFP+ cells).
Chromatin was prepared from J-Lat A2 and 5A8 cells, in which the LTR was stimulated by 1000 nM AS1842856 treatment, TNFα or which were left untreated/DMSO. […] HIV-GFP reactivation was analyzed by FACS and relativized to the control condition. […] Data represent average SD of 3-6 independent experiments. […] HIV-GFP reactivation was analyzed by FACS. […] HIV-GFP reactivation and cell viability were analyzed by FACS. Data were mean±SD of three independent experiments.

T1 sequence (Q12778 whole entry, canonical isoform): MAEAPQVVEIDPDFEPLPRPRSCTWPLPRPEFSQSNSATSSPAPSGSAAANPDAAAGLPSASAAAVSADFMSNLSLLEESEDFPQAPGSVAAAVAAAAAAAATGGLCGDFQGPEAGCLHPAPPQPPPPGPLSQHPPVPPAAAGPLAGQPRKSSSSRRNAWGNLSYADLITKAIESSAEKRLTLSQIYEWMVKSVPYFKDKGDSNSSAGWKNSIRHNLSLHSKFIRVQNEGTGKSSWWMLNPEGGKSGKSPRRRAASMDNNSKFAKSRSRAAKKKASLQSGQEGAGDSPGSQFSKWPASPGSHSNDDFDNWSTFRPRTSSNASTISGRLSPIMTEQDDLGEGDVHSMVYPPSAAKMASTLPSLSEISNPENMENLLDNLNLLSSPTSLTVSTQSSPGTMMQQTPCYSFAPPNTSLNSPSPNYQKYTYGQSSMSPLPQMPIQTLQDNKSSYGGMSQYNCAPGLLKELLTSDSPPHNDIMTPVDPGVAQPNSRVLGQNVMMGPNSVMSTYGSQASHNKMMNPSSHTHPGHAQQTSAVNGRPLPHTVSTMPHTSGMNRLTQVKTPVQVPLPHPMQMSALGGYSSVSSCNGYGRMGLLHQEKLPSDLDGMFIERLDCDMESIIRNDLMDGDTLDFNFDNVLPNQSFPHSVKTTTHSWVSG

With CCn1cc(C(=O)O)c(=O)c2c(N)c(F)c(NC3CCCCC3)cc21 [AS1842856, 5-amino-7-(cyclohexylamino)-1-ethyl-6-fluoro-4-oxo-1,4-dihydro-quinoline-3-carboxylic acid] the “shift in FOXO1 melting curve” value (FOXO1) was 7.23 °C, the “HIV-driven GFP expression (flow cytometry)” value ([1]; J-Lat A2 cells (contain Tat)) was “increased GFP expression” and the “HIV-driven GFP expression (flow cytometry)” value ([1]; J-Lat A72 cells (no Tat)) was “increased GFP expression”. For the same molecule, the “HIV reactivation (percentage of GFP+ cells, median fluorescence intensity)” value ([1]; four J-Lat clonal cell lines, 72 hours) was “reactivated HIV in each cell line”.

— patent publication US20220193209A1, “COMPOSITIONS AND METHODS FOR REACTIVATING LATENT IMMUNODEFICIENCY VIRUS AND/OR TREATING IMMUNODEFICIENCY VIRUS INFECTION” (The J. David Gladstone institutes, a testamentary trust …, priority 2019, published 2022)
